# Where two headings read alike, the source gives them in different places.
# System: Onchocerca gutturosa Adult Male Worms
# Assay: Onchocerciasis in vitro screening model, worm motility score
# Type: cell-based
# Conditions: read-out: O. gutturosa activity level (IC50 or MED)
# [1] = Onchocerca gutturosa, Table 1 O. gutturosa, levels A/B/C, motility or MTT readout not specified
# [2] = in vitro, Onchocerca gutturosa adult male worms, class A/B/C
IC50 [1] [nM],SMILES,IC50 [2] [nM]
200 to 500,"Cc1cccnc1Nc1nc(-c2ccc(OC3CCN(CC4CC4)CC3)cn2)ns1 [Compound 75, 3-(5-(1-(cyclopropyl-methyl)piperidin-4-yloxy)pyridin-2-yl)-N-(3-methylpyridin-2-yl)-1,2,4-thiadiazol-5-amine]",
500 to 5000,"CC(C)Oc1ccc(-c2nsc(N(C)c3ncccc3N(C)C)n2)nc1 [Compound 139, N2-(3-(5-isoprop-oxypyridin-2-yl)-1,2,4-thiadiazol-5-yl)-N2,N3,N3-trimethylpyridine-2,3-diamine]",
,"COc1ccc(-c2nsc(Nc3ccc(OC(C)C)cn3)n2)nc1 [Compound 215, N-(5-isoprop-oxypyridin-2-yl)-3-(5-methoxy-pyridin-2-yl)-1,2,4-thiadiazol-5-amine]",500 to 5000
,"CC(C)Oc1ccc(-c2nsc(Nc3ncc(C(F)(F)F)cc3N(C)C(=O)C3CC3)n2)nc1 [Compound 248, N-(2-(3-(5-isopropoxy-pyridin-2-yl)-1,2,4-thiadiazol-5-ylamino)-5-(trifluoro-methyl)pyridin-3-yl)-N-methylcyclo-propanecarbox-amide]",500 to 5000
500 to 5000,"CN1CC(S(=O)(=O)c2ccc(-c3nsc(Nc4ncccc4N(C)C)n3)nc2)C1 [Compound 141, N3,N3-dimethyl-N2-(3-(5-(1-methylazetidin-3-ylsulfonyl)pyridin-2-yl)-1,2,4-thiadiazol-5-yl)pyridine-2,3-diamine]",
,"CC(C)Oc1cnc(-c2nsc(Nc3ncc(C(C)C)cc3C(F)(F)F)n2)cc1C(N)=O [Compound 221, 5-isopropoxy-2-(5-(5-isopropyl-3-(trifluoromethyl)pyridin-2-ylamino)-1,2,4-thiadiazol-3-yl)iso-nicotinamide]",200 to 500
,"CC(C)c1cnc(Nc2nc(-c3cc4c(cn3)N(C)CC4)ns2)cc1C(F)(F)F [Compound 322, N-(5-isopropyl-4-(trifluoromethyl)pyridin-2-yl)-3-(1-methyl-2,3-dihydro-1H-pyrrolo[2,3-c]pyridin-5-yl)-1,2,4-thiadiazol-5-amine]",< 200
,"CC(C)c1cnc(Nc2nc(-c3cc4c(cn3)OC(C)(C)C4)ns2)cc1C(F)(F)F [Compound 296, 3-(2,2-dimethyl-2,3-dihydrofuro[2,3-c]pyridin-5-yl)-N-(5-isopropyl-4-(trifluoromethyl)pyridin-2-yl)-1,2,4-thiadiazol-5-amine]",< 200
,"CC(C)c1ccnc(-c2nsc(Nc3ncccc3N(C)C(=O)C3CC3)n2)c1 [Compound 217, N-(2-(3-(4-isopropylpyridin-2-yl)-1,2,4-thiadiazol-5-ylamino)pyridin-3-yl)-N-methylcyclo-propanecarbox-amide]",200 to 500
,"CC(C)Oc1cnc(-c2nsc(Nc3ncccc3C(C)C)n2)cc1C#N [Compound 201, 5-isopropoxy-2-(5-(3-isopropyl-pyridin-2-ylamino)-1,2,4-thiadiazol-3-yl)isonicotino-nitrile]",500 to 5000
500 to 5000,"Cc1cccnc1Nc1nc(-c2ccc(N3CCS(=O)(=O)CC3)cn2)ns1 [Compound 26, 4-(6-(5-((3-methylpyridin-2-yl)amino)-1,2,4-thiadiazol-3-yl)pyridin-3-yl)thio-morpholine 1,1-dioxide]",
500 to 5000,"CC(C)c1cnc(Nc2nc(-c3ccccn3)n(C)n2)cc1C(F)(F)F [Compound 143, 5-isopropyl-N-(1-methyl-5-(pyridin-2-yl)-1H-1,2,4-triazol-3-yl)-4-(trifluoromethyl) pyridin-2-amine]",
< 200,"Cc1ccnc(-c2nsc(Nc3ncccc3C(F)(F)F)n2)c1 [Compound 37, 3-(4-methyl-pyridin-2-yl)-N-(3-(trifluoro-methyl)pyridin-2-yl)-1,2,4-thiadiazol-5-amine]",
< 200,"COc1cccnc1Nc1nc(-c2cc(C)ccn2)ns1 [Compound 24, N-(3-methoxy-pyridin-2-yl)-3-(4-methyl-pyridin-2-yl)-1,2,4-thiadiazol-5-amine]",
,"Cc1cccnc1Nc1nc(-c2ccc(OC3CCN(C(=O)C(C)C)CC3)cn2)ns1 [Compound 265, 2-methyl-1-(4-(6-(5-(3-methylpyridin-2-ylamino)-1,2,4-thiadiazol-3-yl)pyridin-3-yloxy)piperidin-1-yl)propan-1-one]",500 to 5000
500 to 5000,"CN1CCC(S(=O)(=O)c2ccc(-c3nsc(Nc4ncccc4N(C)C)n3)nc2)CC1 [Compound 142, N3,N3-dimethyl-N2-(3-(5-(1-methylpiperidin-4-ylsulfonyl)pyridin-2-yl)-1,2,4-thiadiazol-5-yl)pyridine-2,3-diamine]",
200 to 500,"Cc1cccnc1Nc1nc(-c2ccc(C(=O)N3CCOCC3)cn2)ns1 [Compound 58, (6-(5-(3-methyl-pyridin-2-ylamino)-1,2,4-thiadiazol-3-yl)pyridin-3-yl)(morpholino) methanone]",
,"CC(=O)N(C)c1cccnc1Nc1nc(-c2cc(C(F)F)c(OC(C)C)cn2)ns1 [Compound 261, N-(2-(3-(4-(difluoromethyl)-5-isopropoxy-pyridin-2-yl)-1,2,4-thiadiazol-5-ylamino)pyridin-3-yl)-N-methylacetamide]",500 to 5000
500 to 5000,"Cc1cccnc1-c1nnc(Nc2ccccn2)o1 [Compound 32, 5-(3-methyl-pyridin-2-yl)-N-(pyridin-2-yl)-1,3,4-oxadiazol-2-amine]",
< 200,"c1ccc(Nc2nc(-c3ccccn3)ns2)nc1 [Compound 33, N,3-di(pyridin-2-yl)-1,2,4-thiadiazol-5-amine]",

SMILES,IC50 [1] [nM],IC50 [2] [nM]
"CN(C)c1cccnc1Nc1nc(-c2ccc(F)cn2)ns1 [Compound 121, N2-(3-(5-fluoro-pyridin-2-yl)-1,2,4-thiadiazol-5-yl)-N3,N3-dimethylpyridine-2,3-diamine]",< 200,
"Cc1ccnc(-c2noc(Nc3ncccc3F)n2)c1 [Compound 14, N-(3-fluoro-pyridin-2-yl)-3-(4-methylpyridin-2-yl)-1,2,4-oxadiazol-5-amine]",500 to 5000,
"COc1ccc(-c2nsc(Nc3ccc(C4CCCC4)cn3)n2)nc1 [Compound 68, N-(5-cyclopentyl-pyridin-2-yl)-3-(5-methoxypyridin-2-yl)-1,2,4-thiadiazol-5-amine]",200 to 500,
"CC(C)Oc1ccc(-c2nsc(Nc3ncccc3N(C)C)n2)nn1 [Compound 155, N2-(3-(6-isopropoxy-pyridazin-3-yl)-1,2,4-thiadiazol-5-yl)-N3,N3-dimethyl-pyridine-2,3-diamine]",500 to 5000,
"CC(C)c1cccnc1Nc1nc(-c2ccc(OC3CC3)cn2)ns1 [Compound 74, 3-(5-cyclopropoxy-pyridin-2-yl)-N-(3-isopropylpyridin-2-yl)-1,2,4-thiadiazol-5-amine]",< 200,
"CC(C)c1ccnc(-c2nsc(Nc3ncccc3C(F)(F)F)n2)c1 [Compound 67, 3-(4-isopropyl-pyridin-2-yl)-N-(3-(trifluoromethyl)pyridin-2-yl)-1,2,4-thiadiazol-5-amine]",< 200,
"CC(C)Oc1ccc(-c2nsc(Nc3ncccc3N(C)C)n2)nc1 [Compound 56, N2-(3-(5-isoprop-oxypyridin-2-yl)-1,2,4-thiadiazol-5-yl)-N3,N3 - dimethyl-pyridine-2,3-diamine]",500 to 5000,
"CC(C)Oc1cnc(-c2nsc(Nc3ncccc3N(C)C)n2)cc1C(F)(F)F [Compound 156, N2-(3-(5-isopropoxy-4-(trifluoromethyl)pyridin-2-yl)-1,2,4-thiadiazol-5-yl)-N3,N3-dimethyl-pyridine-2,3-diamine]",< 200,
